The target of test [1] is T1, HiBit-BRG1 (Homo sapiens, UniProt P51532).
T1 construct: expressed in transfected cells
Briefly: HiBit-BRG1 cell-based degradation assay (Nano-Glo HiBiT Lytic Detection). The conditions noted are these: HeLa cells expressing HiBit-BRG1 and LgBit, 24 h; for DC50: read-out: BRG1 HiBit Degradation IC50; for Dmax: read-out: BRG1 HiBit Degradation Maximum (%). An outline of the steps: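 HeLa cells stably expressing HiBit-BRG1 plus LgBit; compound exposure 24 h; Nano-Glo HiBiT lytic luminescence; % degradation vs DMSO (0%) and 2 μM standard BRM/BRG1 degrader (100%).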
In general terms: With HiBiT, luminescence reflects the tagged protein that the partner subunit can reach.

Test [2] deals with T2, HiBiT-BRM (Homo sapiens, UniProt P51531).
T2 construct: expressed in transfected cells
The test is described as follows: HiBiT-BRM cell-based degradation assay (Nano-Glo HiBiT Lytic Detection). The following applies: HeLa cells expressing HiBiT-BRM, 24 h; for DC50: read-out: BRM HiBit Degradation IC50. The essentials: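 Luminescence from HiBiT–LgBiT complementation in lysates of a stable HiBiT-BRM HeLa line measured after 24 h compound exposure. Degradation expressed as percent relative to DMSO-treated cells and cells given 2 μM of a known BRM/BRG1 degrader.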

Each structure is given as a SMILES string.

T2 sequence (P51531 whole entry): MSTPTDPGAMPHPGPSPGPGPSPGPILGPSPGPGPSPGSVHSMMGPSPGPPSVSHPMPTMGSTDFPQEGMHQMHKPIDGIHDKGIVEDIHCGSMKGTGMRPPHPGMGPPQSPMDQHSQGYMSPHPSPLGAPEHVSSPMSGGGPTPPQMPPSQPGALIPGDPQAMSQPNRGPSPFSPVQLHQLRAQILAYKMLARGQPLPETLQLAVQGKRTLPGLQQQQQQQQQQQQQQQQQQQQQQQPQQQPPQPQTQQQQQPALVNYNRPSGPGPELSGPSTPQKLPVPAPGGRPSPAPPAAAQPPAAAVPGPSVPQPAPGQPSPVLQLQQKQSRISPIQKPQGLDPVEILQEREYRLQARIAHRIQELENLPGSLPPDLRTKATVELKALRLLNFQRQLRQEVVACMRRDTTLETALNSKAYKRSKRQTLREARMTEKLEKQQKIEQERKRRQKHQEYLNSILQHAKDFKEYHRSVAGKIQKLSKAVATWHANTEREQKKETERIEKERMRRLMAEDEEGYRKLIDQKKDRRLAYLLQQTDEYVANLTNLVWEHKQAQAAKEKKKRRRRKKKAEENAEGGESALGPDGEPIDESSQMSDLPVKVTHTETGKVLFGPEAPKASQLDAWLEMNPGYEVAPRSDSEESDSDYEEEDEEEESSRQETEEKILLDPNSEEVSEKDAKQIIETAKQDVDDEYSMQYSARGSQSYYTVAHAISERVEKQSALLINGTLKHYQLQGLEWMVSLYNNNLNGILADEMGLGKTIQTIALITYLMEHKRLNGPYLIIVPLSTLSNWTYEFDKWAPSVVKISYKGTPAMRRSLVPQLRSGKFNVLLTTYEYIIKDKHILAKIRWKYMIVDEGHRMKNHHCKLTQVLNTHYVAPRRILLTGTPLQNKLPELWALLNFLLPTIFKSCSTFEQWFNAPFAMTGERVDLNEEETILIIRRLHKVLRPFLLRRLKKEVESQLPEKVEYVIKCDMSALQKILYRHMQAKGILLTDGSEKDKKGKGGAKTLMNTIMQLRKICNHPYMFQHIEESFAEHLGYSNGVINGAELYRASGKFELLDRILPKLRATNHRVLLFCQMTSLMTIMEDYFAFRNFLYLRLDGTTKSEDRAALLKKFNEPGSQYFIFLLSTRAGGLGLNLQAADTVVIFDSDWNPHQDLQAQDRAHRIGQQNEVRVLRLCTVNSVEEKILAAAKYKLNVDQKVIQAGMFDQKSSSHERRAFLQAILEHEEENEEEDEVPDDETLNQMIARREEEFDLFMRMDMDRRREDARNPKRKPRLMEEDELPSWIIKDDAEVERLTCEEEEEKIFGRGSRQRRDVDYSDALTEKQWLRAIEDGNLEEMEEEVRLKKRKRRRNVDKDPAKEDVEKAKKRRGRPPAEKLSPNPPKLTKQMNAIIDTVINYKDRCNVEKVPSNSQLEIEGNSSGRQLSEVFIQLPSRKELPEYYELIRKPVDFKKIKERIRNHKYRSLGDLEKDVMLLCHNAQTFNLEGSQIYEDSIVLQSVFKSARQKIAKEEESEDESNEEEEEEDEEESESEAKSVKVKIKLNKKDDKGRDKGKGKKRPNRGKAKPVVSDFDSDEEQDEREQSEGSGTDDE
T1 sequence (P51532 whole entry): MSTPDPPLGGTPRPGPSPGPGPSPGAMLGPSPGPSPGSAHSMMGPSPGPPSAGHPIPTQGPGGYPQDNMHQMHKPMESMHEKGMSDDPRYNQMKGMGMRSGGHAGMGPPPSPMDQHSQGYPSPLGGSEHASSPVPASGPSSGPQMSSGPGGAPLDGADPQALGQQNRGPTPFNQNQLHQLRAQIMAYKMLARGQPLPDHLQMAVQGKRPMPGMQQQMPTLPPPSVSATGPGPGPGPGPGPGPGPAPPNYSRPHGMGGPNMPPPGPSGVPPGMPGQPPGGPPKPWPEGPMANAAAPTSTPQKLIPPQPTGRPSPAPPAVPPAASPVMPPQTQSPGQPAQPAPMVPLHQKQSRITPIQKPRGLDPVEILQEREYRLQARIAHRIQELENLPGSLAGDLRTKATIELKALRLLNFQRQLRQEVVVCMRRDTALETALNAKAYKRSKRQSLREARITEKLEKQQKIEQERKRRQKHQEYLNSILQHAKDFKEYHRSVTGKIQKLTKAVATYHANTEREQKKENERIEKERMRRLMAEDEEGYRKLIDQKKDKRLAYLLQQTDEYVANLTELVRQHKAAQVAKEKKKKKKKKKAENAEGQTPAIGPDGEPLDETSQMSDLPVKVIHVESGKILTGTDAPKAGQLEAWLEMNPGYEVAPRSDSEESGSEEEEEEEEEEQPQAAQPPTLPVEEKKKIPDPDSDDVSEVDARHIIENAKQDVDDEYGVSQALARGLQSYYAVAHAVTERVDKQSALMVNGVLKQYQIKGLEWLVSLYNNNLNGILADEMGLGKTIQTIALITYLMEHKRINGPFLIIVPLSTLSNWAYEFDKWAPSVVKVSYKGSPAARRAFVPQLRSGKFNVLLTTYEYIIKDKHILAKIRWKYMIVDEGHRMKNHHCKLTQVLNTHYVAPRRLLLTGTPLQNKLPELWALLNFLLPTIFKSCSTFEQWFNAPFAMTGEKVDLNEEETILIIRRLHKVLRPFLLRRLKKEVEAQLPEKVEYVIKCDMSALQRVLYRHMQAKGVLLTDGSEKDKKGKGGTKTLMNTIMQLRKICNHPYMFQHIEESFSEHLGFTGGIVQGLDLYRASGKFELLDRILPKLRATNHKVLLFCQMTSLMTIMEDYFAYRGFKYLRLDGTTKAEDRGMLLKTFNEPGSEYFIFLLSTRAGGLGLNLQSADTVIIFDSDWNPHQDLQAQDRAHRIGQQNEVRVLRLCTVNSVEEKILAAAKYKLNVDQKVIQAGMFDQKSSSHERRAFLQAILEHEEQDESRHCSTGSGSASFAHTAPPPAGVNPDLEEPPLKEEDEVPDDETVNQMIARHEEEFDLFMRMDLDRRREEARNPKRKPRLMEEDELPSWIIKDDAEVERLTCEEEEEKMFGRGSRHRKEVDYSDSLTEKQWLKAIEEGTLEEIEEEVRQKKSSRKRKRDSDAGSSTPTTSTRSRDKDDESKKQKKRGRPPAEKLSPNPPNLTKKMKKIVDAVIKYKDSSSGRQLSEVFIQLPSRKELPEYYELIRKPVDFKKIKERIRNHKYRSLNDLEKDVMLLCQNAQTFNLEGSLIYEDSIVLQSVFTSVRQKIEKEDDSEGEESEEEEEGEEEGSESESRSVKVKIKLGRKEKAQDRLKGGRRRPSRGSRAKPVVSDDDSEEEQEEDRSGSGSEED

With `Nc1nnc(-c2ccccc2O)cc1OCCc1ccc(CNCCOc2cccc3c2C(=O)N(C2CCC(=O)NC2=O)C3=O)cc1` (stereo not shown) [Compound 115, 4-[2-([[4-(2-[[3-amino-6-(2-hydroxyphenyl)pyridazin-4-yl]oxy]ethyl)phenyl]methyl]amino)ethoxy]-2-(2,6-dioxopiperidin-3-yl)isoindole-1,3-dione], in test [1], the DC50 is greater than 1 µM and the Dmax was less than 50%. In test [2], the “BRM HiBit Degradation Maximum (%)” value is “C (“C” indicates maximum degradation <50%)” and the DC50 was greater than 1 µM.

With `Cc1ncsc1-c1ccc(CNC(=O)[C@@H]2C[C@@H](O)CN2C(=O)[C@@H](NC(=O)CCN2CC3(C2)CN(CC(=O)NCc2ccc(CCOc4cc(-c5ccccc5O)nnc4N)cc2)C3)C(C)(C)C)cc1` [Compound 196, (2S,4R)-1-((S)-2-(3-(6-(2-((4-(2-((3-amino-6-(2-hydroxyphenyl)pyridazin-4-yl)oxy)ethyl)benzyl)amino)-2-oxoethyl)-2,6-diazaspiro[3.3]heptan-2-yl)propanamido)-3,3-dimethylbutanoyl)-4-hydroxy-N-(4-(4-methylthiazol-5-yl)benzyl)pyrrolidine-2-carboxamide], in test [1], the DC50 was greater than 1 µM and the Dmax is less than 50%. Further, in test [2], the “BRM HiBit Degradation Maximum (%)” value is on record as “C (“C” indicates maximum degradation <50%)” and the DC50 is greater than 1 µM.

`Nc1nnc(-c2ccccc2O)cc1OCCc1ccc(CNC(=O)CCCCOc2cccc3c2C(=O)N(C2CCC(=O)NC2=O)C3)cc1` (stereo not shown) [Compound 152, N-(4-(2-((3-amino-6-(2-hydroxyphenyl)pyridazin-4-yl)oxy)ethyl)benzyl)-5-((2-(2,6-dioxopiperidin-3-yl)-3-oxoisoindolin-4-yl)oxy)pentanamide]: in test [1], the DC50 is greater than 1 µM and the Dmax was less than 50%. In test [2], the “BRM HiBit Degradation Maximum (%)” value was “A (“A” indicates maximum degradation ≥75%)” and the DC50 was greater than 0.1 µM.

On to `Nc1nnc(-c2ccccc2O)cc1OCCc1ccc(C(=O)NCCCCCCCCNc2ccc3c(c2)C(=O)N(C2CCC(=O)NC2=O)C3=O)cc1` (stereo not shown) [Compound 64, 4-(2-[[3-amino-6-(2-hydroxyphenyl)pyridazin-4-yl]oxy]ethyl)-N-(8-[[2-(2,6-dioxopiperidin-3-yl)-1,3-dioxoisoindol-5-yl]amino]octyl)benzamide], for which, in test [1], the DC50 was greater than 1 µM and the Dmax is less than 50%. Also, in test [2], the “BRM HiBit Degradation Maximum (%)” value is given as “C (“C” indicates maximum degradation <50%)” and the DC50 is greater than 1 µM.

Take `Cc1ncsc1-c1ccc([C@H](C)NC(=O)[C@@H]2C[C@@H](O)CN2C(=O)[C@@H](NC(=O)CCCCCCCCCCCCCCNC(=O)c2ccc(CCOc3cc(-c4ccccc4O)nnc3N)cc2)C(C)(C)C)cc1` [Compound 254, (2S,4R)-1-((S)-2-(15-(4-(2-((3-amino-6-(2-hydroxyphenyl)pyridazin-4-yl)oxy)ethyl)benzamido)pentadecanamido)-3,3-dimethylbutanoyl)-4-hydroxy-N-((S)-1-(4-(4-methylthiazol-5-yl)phenyl)ethyl)pyrrolidine-2-carboxamide]: in test [1], the DC50 was greater than 1 µM and the Dmax is less than 50%. Further, in test [2], the “BRM HiBit Degradation Maximum (%)” value is reported as “B (“B” indicates maximum degradation ≥50%)” and the DC50 was greater than 0.01 µM.

Take `Cc1ncsc1-c1ccc(CNC(=O)[C@@H]2C[C@@H](O)CN2C(=O)[C@@H](NC(=O)CCCCCCCCCCCCCCCC(=O)NCc2ccc(CCOc3cc(-c4ccccc4O)nnc3N)cc2)C(C)C)cc1` [Compound 173, N1-(4-(2-((3-amino-6-(2-hydroxyphenyl)pyridazin-4-yl)oxy)ethyl)benzyl)-N17-((S)-1-((2S,4R)-4-hydroxy-2-((4-(4-methylthiazol-5-yl)benzyl)carbamoyl)pyrrolidin-1-yl)-3-methyl-1-oxobutan-2-yl)heptadecanediamide]: in test [1], the DC50 is greater than 1 µM and the Dmax was less than 50%. For the same compound, in test [2], the “BRM HiBit Degradation Maximum (%)” value is recorded as “B (“B” indicates maximum degradation ≥50%)” and the DC50 is greater than 0.1 µM.

Regarding `Cc1ncsc1-c1ccc(CNC(=O)[C@@H]2C[C@@H](O)CN2C(=O)[C@@H](NC(=O)CCCCCCCCCNC(=O)c2ccc(CCN(C)c3cc(-c4ccccc4O)nnc3N)cc2)C(C)(C)C)cc1` [Compound 20, (2S,4R)-1-[(2S)-2-(10-[[4-(2-[[3-amino-6-(2-hydroxyphenyl)pyridazin-4-yl](methyl)amino]ethyl)phenyl]formamido]decanamido)-3,3-dimethylbutanoyl]-4-hydroxy-N-[[4-(4-methyl-1,3-thiazol-5-yl)phenyl]methyl]pyrrolidine-2-carboxamide], in test [1], the DC50 was greater than 0.1 µM and the Dmax was greater than 75%. Besides, in test [2], the “BRM HiBit Degradation Maximum (%)” value was “A (“A” indicates maximum degradation ≥75%)” and the DC50 was greater than 0.01 µM.

Turning to `Cc1ncsc1-c1ccc(CNC(=O)[C@@H]2C[C@@H](O)CN2C(=O)[C@@H](NC(=O)CCCCCCCCC(=O)NCc2ccc(CCN(C)c3cc(-c4ccccc4O)nnc3N)cc2)C(C)(C)C)cc1` [Compound 132, N′-[[4-(2-[[3-amino-6-(2-hydroxyphenyl)pyridazin-4-yl](methyl)amino]ethyl)phenyl]methyl]-N-[(2S)-1-[(2S,4R)-4-hydroxy-2-([[4-(4-methyl-1,3-thiazol-5-yl)phenyl]methyl]carbamoyl)pyrrolidin-1-yl]-3,3-dimethyl-1-oxobutan-2-yl]decanediamide], in test [1], the DC50 was greater than 1 µM and the Dmax was greater than 50%. In addition, in test [2], the “BRM HiBit Degradation Maximum (%)” value was “A (“A” indicates maximum degradation ≥75%)” and the DC50 was greater than 0.1 µM.

Turning to `Cc1ncsc1-c1ccc(CNC(=O)[C@@H]2C[C@@H](O)CN2C(=O)[C@@H](NC(=O)CCN2CC(C(=O)NCc3ccc(CCOc4cc(-c5ccccc5O)nnc4N)cc3)C2)C(C)(C)C)cc1` [Compound 182, (2S,4R)-1-[(2S)-2-[3-[3-([[4-(2-[[3-amino-6-(2-hydroxyphenyl)pyridazin-4-yl]oxy]ethyl)phenyl]methyl]carbamoyl)azetidin-1-yl]propanamido]-3,3-dimethylbutanoyl]-4-hydroxy-N-[[4-(4-methyl-1,3-thiazol-5-yl)phenyl]methyl]pyrrolidine-2-carboxamide], in test [1], the DC50 was greater than 1 µM and the Dmax was less than 50%. For the same compound, in test [2], the “BRM HiBit Degradation Maximum (%)” value is on record as “C (“C” indicates maximum degradation <50%)” and the DC50 is greater than 1 µM.

Turning to `CN(CCNC(=O)CN1CCN(c2cc(-c3ccccc3O)nnc2N)CC1)CCNc1cccc2c1C(=O)N(C1CCC(=O)NC1=O)C2=O` (stereo not shown) [Compound 96, 2-(4-(3-amino-6-(2-hydroxyphenyl)pyridazin-4-yl)piperazin-1-yl)-N-(2-((2-((2-(2,6-dioxopiperidin-3-yl)-1,3-dioxoisoindolin-4-yl)amino)ethyl)(methyl)amino)ethyl)acetamide], in test [1], the DC50 was greater than 1 µM and the Dmax is less than 50%. Further, in test [2], the “BRM HiBit Degradation Maximum (%)” value is reported as “C (“C” indicates maximum degradation <50%)” and the DC50 was greater than 1 µM.
